System: BALB/c mice
Assay: Anti-peptide antibody response (ELISA) in BALB/c mice immunized with peptide multimers
Type: in vivo
Parameters: key to Antipeptide Antibody Reactivity to Analogous Peptide: −: cpm values are corrected and categorized according to unrelated antigen response in vitro.; •: Not determined.; +: cpm values are corrected and categorized according to unrelated antigen response in vitro.; ++: cpm values are corrected and categorized according to unrelated antigen response in vitro.; +++: cpm values are corrected and categorized according to unrelated antigen response in vitro.; ++++: cpm values are corrected and categorized according to unrelated antigen response in vitro
Details: antibody raised in Balb/C mice; ELISA end point

Sequence	Antipeptide Antibody Reactivity to Analogous Peptide
AHKVWATHACV [Peptide 106]	++
CRIKQIINMWQGVGKAMYA [Peptide 65, gp160 aa 417-435; polymeric form of the T-helper cell peptide]	++
CVPTNPVPQEVV [Peptide 107]	+
EQMHEDIISLWDQ [Peptide 110]	++++
FEPIPIHYCAFPGF [Peptide 114]	++++
FLGFLGAAGSTMGAASLTLTVQANQ [Peptide 63, gp160 aa 519-543]	•
GTGPCTNVSTVQC [Peptide 116]	−
GVPVWKEATTLFC [Peptide 105]	•
KKFNGTGPCTN [Peptide 115]	++
LWDQSLKPCVKLT [Peptide 111]	−
NNMVEQMHEDI [Peptide 109]	+++
SLKPCVKLTPLC [Peptide 112]	+
SVITQACSKVSFE [Peptide 113]	−
VLENVTENFNM [Peptide 108]	+
VQCTHGIRPVVSTQ [Peptide 117]	++++

Same assay, conditions: disulfide (di-Cys) polymeric form

Sequence	anti-peptide antibody production (in words)
FLGFLGAAGSTMGAASLTLTVQANQ [Peptide 63, gp160 aa 519-543]	do not stimulate anti-peptide antibody production
SVITQACSKVSFE [Peptide 113]	do not stimulate anti-peptide antibody production

Same assay, conditions: high molecular weight forms of the peptides

Sequence	anti-peptide antibody response (in words)
AHKVWATHACV [Peptide 106]	high antibody titers
CRIKQIINMWQGVGKAMYA [Peptide 65, gp160 aa 417-435; polymeric form of the T-helper cell peptide]	high antibody titers
CVPTNPVPQEVV [Peptide 107]	high antibody titers
EQMHEDIISLWDQ [Peptide 110]	high antibody titers
FEPIPIHYCAFPGF [Peptide 114]	high antibody titers
FLGFLGAAGSTMGAASLTLTVQANQ [Peptide 63, gp160 aa 519-543]	very low to negligible amounts of anti-peptide antibodies
GTGPCTNVSTVQC [Peptide 116]	very low to negligible amounts of anti-peptide antibodies
GVPVWKEATTLFC [Peptide 105]	high antibody titers
KKFNGTGPCTN [Peptide 115]	high antibody titers
LWDQSLKPCVKLT [Peptide 111]	very low to negligible amounts of anti-peptide antibodies
NNMVEQMHEDI [Peptide 109]	high antibody titers
SLKPCVKLTPLC [Peptide 112]	high antibody titers
SVITQACSKVSFE [Peptide 113]	very low to negligible amounts of anti-peptide antibodies
VLENVTENFNM [Peptide 108]	high antibody titers
VQCTHGIRPVVSTQ [Peptide 117]	high antibody titers

System: PLN cells from B6C3F1 mice
Assay: In vitro proliferation (3H-TdR) of PLN cells from immunized B6C3 F1 mice
Type: in vivo
Parameters: key to In Vitro Proliferation of PLN Cells from B6C3F1, Analogous Peptide / In Vitro Proliferation of PLN Cells from B6C3F1, GP 160: −: cpm values are corrected and categorized according to unrelated antigen response in vitro.; •: Not determined.; +: cpm values are corrected and categorized according to unrelated antigen response in vitro.; ++: cpm values are corrected and categorized according to unrelated antigen response in vitro.; +++: cpm values are corrected and categorized according to unrelated antigen response in vitro.; ++++: cpm values are corrected and categorized according to unrelated antigen response in vitro
Details: disulfide (di-Cys) polymeric form

Sequence	T cell response against the corresponding peptide and native HIV envelope protein gp160 (in words)
FLGFLGAAGSTMGAASLTLTVQANQ [Peptide 63, gp160 aa 519-543]	strong T cell response
SVITQACSKVSFE [Peptide 113]	strong T cell response

Same assay, conditions: in vitro antigen: GP 160

Sequence	In Vitro Proliferation of PLN Cells from B6C3F1, GP 160
AHKVWATHACV [Peptide 106]	+
CRIKQIINMWQGVGKAMYA [Peptide 65, gp160 aa 417-435; polymeric form of the T-helper cell peptide]	+
CVPTNPVPQEVV [Peptide 107]	++
EQMHEDIISLWDQ [Peptide 110]	−
FEPIPIHYCAFPGF [Peptide 114]	−
FLGFLGAAGSTMGAASLTLTVQANQ [Peptide 63, gp160 aa 519-543]	++
GTGPCTNVSTVQC [Peptide 116]	−
GVPVWKEATTLFC [Peptide 105]	+++
KKFNGTGPCTN [Peptide 115]	+
LWDQSLKPCVKLT [Peptide 111]	++
NNMVEQMHEDI [Peptide 109]	•
SLKPCVKLTPLC [Peptide 112]	+
SVITQACSKVSFE [Peptide 113]	+
VLENVTENFNM [Peptide 108]	+
VQCTHGIRPVVSTQ [Peptide 117]	−

Same assay, conditions: in vitro antigen: analogous peptide

Sequence	In Vitro Proliferation of PLN Cells from B6C3F1, Analogous Peptide
AHKVWATHACV [Peptide 106]	+++
CRIKQIINMWQGVGKAMYA [Peptide 65, gp160 aa 417-435; polymeric form of the T-helper cell peptide]	++
CVPTNPVPQEVV [Peptide 107]	++
EQMHEDIISLWDQ [Peptide 110]	++
FEPIPIHYCAFPGF [Peptide 114]	++
FLGFLGAAGSTMGAASLTLTVQANQ [Peptide 63, gp160 aa 519-543]	++
GTGPCTNVSTVQC [Peptide 116]	++
GVPVWKEATTLFC [Peptide 105]	++++
KKFNGTGPCTN [Peptide 115]	++
LWDQSLKPCVKLT [Peptide 111]	+
NNMVEQMHEDI [Peptide 109]	++
SLKPCVKLTPLC [Peptide 112]	+
SVITQACSKVSFE [Peptide 113]	++
VLENVTENFNM [Peptide 108]	+
VQCTHGIRPVVSTQ [Peptide 117]	+++

System: PLN cells from A SW × Balb/c F1 mice
Assay: In vitro proliferation (3H-TdR) of PLN cells from immunized A.SW x BALB/c F1 mice
Type: in vivo, A.SWXBALB/C F1 mice
Parameters: key: −: cpm values are corrected and categorized according to unrelated antigen response in vitro.; •: Not determined.; +: cpm values are corrected and categorized according to unrelated antigen response in vitro.; ++: cpm values are corrected and categorized according to unrelated antigen response in vitro.; +++: cpm values are corrected and categorized according to unrelated antigen response in vitro.; ++++: cpm values are corrected and categorized according to unrelated antigen response in vitro
Details: in vitro antigen: GP 160

Sequence	In Vitro Proliferation of PLN Cells from A SW × Balb/c F1, GP 160
AHKVWATHACV [Peptide 106]	+
CRIKQIINMWQGVGKAMYA [Peptide 65, gp160 aa 417-435; polymeric form of the T-helper cell peptide]	++
CVPTNPVPQEVV [Peptide 107]	+
EQMHEDIISLWDQ [Peptide 110]	+
FEPIPIHYCAFPGF [Peptide 114]	+
FLGFLGAAGSTMGAASLTLTVQANQ [Peptide 63, gp160 aa 519-543]	++
GVPVWKEATTLFC [Peptide 105]	−
LWDQSLKPCVKLT [Peptide 111]	−
NNMVEQMHEDI [Peptide 109]	+
SLKPCVKLTPLC [Peptide 112]	+
SVITQACSKVSFE [Peptide 113]	+
VLENVTENFNM [Peptide 108]	−

Same assay, conditions: in vitro antigen: analogous peptide

Sequence	In Vitro Proliferation of PLN Cells from A SW × Balb/c F1, Analogous Peptide
AHKVWATHACV [Peptide 106]	++++
CRIKQIINMWQGVGKAMYA [Peptide 65, gp160 aa 417-435; polymeric form of the T-helper cell peptide]	++++
CVPTNPVPQEVV [Peptide 107]	+
EQMHEDIISLWDQ [Peptide 110]	++
FEPIPIHYCAFPGF [Peptide 114]	++
FLGFLGAAGSTMGAASLTLTVQANQ [Peptide 63, gp160 aa 519-543]	++
GVPVWKEATTLFC [Peptide 105]	+
LWDQSLKPCVKLT [Peptide 111]	•
NNMVEQMHEDI [Peptide 109]	•
SLKPCVKLTPLC [Peptide 112]	+
SVITQACSKVSFE [Peptide 113]	++
VLENVTENFNM [Peptide 108]	+

System: PBMCs of immunized rhesus monkeys
Assay: PBMC proliferation in rhesus monkeys immunized with a mixture of eight synthetic peptides
Type: in vivo
Parameters: key to T-cell Proliferation Responses: —: no detectable response; 1+: poor response; 2+: good response; 3+: better response; 4+: best response; 6+: best response
Details: Rhesus Monkey #7; PBMC response to the individual peptide or gp160
Experimental: In the present studies, three rhesus monkeys (#7, #23 and #283C) were immunized subcutaneously with 1 ml (0.1 ml/site) of a mixture of eight synthetic peptides (300·g of each peptide in sterile water) emulsified in complete Freund's adjuvant at 1:1 ratio. […] At 3 and 7 weeks after the primary immunization, two booster injections of the peptide mixture (150·g of each peptide in sterile water) emulsified in incomplete Freund's adjuvant were given to each monkey. Monkey #7 was terminated after […], for health reasons unrelated to the study, while the remaining two monkeys (#283C and #23) received one additional booster injection at 25 weeks.
At two week intervals following the first immunization of each animal, 15 ml of whole heparinized blood was collected by venous puncture. The peripheral blood mononuclear cells (PBMC) were separated by standard ficoll-hypaque centrifugation and employed in proliferation assays. The PBMCs were monitored every two weeks for a period of 32 weeks for proliferative responses against individual peptides and recombinant gp160.

Sequence	T-cell Proliferation Responses
FLGFLGAAGSTMGAASLTLTVQANQ [Peptide 63, gp160 aa 519-543]	2+
GTGPCTNVSTVQC [Peptide 116]	1+
LWDQSLKPCVKLT [Peptide 111]	3+
SVITQACSKVSFE [Peptide 113]	1+

Same assay, conditions: Rhesus Monkey #23; PBMC response to the individual peptide or gp160

Sequence	T-cell Proliferation Responses
FLGFLGAAGSTMGAASLTLTVQANQ [Peptide 63, gp160 aa 519-543]	4+
GTGPCTNVSTVQC [Peptide 116]	3+
LWDQSLKPCVKLT [Peptide 111]	2+
SVITQACSKVSFE [Peptide 113]	2+

Same assay, conditions: Rhesus Monkey #283C; PBMC response to the individual peptide or gp160

Sequence	T-cell Proliferation Responses
FLGFLGAAGSTMGAASLTLTVQANQ [Peptide 63, gp160 aa 519-543]	3+
GTGPCTNVSTVQC [Peptide 116]	2+
LWDQSLKPCVKLT [Peptide 111]	3+
SVITQACSKVSFE [Peptide 113]	2+

Same assay, conditions: three rhesus monkeys, monitored for 32 weeks

Sequence	PBMC proliferative responses (in words)
FLGFLGAAGSTMGAASLTLTVQANQ [Peptide 63, gp160 aa 519-543]	good proliferative responses
GTGPCTNVSTVQC [Peptide 116]	weak responses
GVPVWKEATTLFC [Peptide 105]	A significant response was not detected
LWDQSLKPCVKLT [Peptide 111]	good proliferative responses
SVITQACSKVSFE [Peptide 113]	weak responses
